From US20120177601A1, “TREATMENT OF HEPATITIS C VIRUS INFECTIONS” (THE USA AS REPRESENTED BY THE SECRETARY OF THE DEPARTMENT …, priority 2009, published 2012)
Values joined by “and” are separate entries in the source; they are usually repeats but may differ in a detail not shown here. Equal values may be shown once. Where a name gives a salt, the structure may show the parent alone. Read-outs that look alike come from different tables or passages of the source.

Tests used:
[1] = test system: Huh5-15NS replicon (sub-genomic HCV RNA); experiment: HCV replication in nonstructural (NS) replicon cells, real-time RT-PCR (ΔCT); type: cell-based; details: for concentration showing significant antiviral activity / required to suppress HCV replication: NS replicon, 48 hr; for Relative [HCV] [ΔCT]: overnight, Huh5-15NS, control vehicle = 1.0
Text: (§1) Cell lines and cell culture. The human hepatoma cell line (Huh5-15) with replicating sub-genomic HCV RNA (Lohmann et al., 1999) was a kind gift of Dr. Volker Lohmann (Institute for Virology, Johannes-Gutenberg University, Mainz, Germany), and cultivated as described (Zhu et al., 2008). Huh7.5 cells harboring full length (Huh7.5FL) Conl replicons (Blight et al., 2002) were a kind gift of Dr. Charles Rice (Rockefeller University, New York, N.Y.). These cells were passed as recommended by their laboratory of origin (Blight et al., 2002). An infectious clone of HCV, J6/JFH, was inoculated into Huh7.5 cells and the cultures passed as previously described (Lindenbach et al., 2005). Cells were incubated with BV, BR, or FeCl2 for 24-48 h in DMEM containing 5% FBS.
(§2) Quantitative Real-time RT-PCR. Total RNA was extracted from cells using Trizol reagent (Invitrogen, Carlsbad, Calif.), treated with Turbo RNase free DNase (Ambion, TX), and processed as described (Zhu et al., 2008). To assess replication, the primers and probe designed by Takeuchi et al. (1999) targeting sequences located in 5′UTR (nt130-290) were employed as described for each replicon line (Blight et al., 2002; Lohmann et al., 2003). Real-time RT-PCR was performed using Taq DNA polymerase with the TaqMan Universal PCR Master Mix Protocol (Perkin Elmer Applied Biosystems, Foster City, Calif.). Quantitation was performed using the comparative cycle threshold (ΔCT) method as described previously (Abdalla et al., 2004).

[2] = target: T1, HCV NS3/4A recombinant protease (UniProt O92972); type: biochemical
T1 construct: other: recombinant protease, 591 nm/622 nm FRET peptide, regression analysis; other: recombinant NS3/4A, Lineweaver-Burk; other: BV versus BR; effect o; fused on or other part: By knowledge of the vendor's product, the NS4A cofactor segment of the same polyprotein is fused to the N-terminus of the NS3 protease domain
T1 sequence (O92972 1027-1657): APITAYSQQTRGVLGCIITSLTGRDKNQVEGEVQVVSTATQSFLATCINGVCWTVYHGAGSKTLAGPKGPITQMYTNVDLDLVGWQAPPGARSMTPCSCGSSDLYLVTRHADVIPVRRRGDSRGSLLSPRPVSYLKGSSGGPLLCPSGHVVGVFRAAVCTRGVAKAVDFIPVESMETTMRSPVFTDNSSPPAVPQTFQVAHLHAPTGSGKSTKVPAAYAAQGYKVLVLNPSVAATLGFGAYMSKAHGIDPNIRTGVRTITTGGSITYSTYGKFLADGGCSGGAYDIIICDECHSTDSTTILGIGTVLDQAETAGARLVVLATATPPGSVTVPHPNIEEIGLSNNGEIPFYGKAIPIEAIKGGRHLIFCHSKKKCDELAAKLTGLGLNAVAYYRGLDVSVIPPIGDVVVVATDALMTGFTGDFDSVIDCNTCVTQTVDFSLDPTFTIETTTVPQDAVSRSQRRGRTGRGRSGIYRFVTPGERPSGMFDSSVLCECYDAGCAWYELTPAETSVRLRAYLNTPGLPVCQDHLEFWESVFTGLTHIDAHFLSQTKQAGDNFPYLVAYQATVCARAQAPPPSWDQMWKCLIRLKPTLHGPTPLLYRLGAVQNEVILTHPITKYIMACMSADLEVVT
Experimental: In vitro assay of HCV NS3/4A recombinant protease. Protease activity was determined fluorometrically with the SensoLyte 620 HCV Protease Assay (AnaSpec, Fremont, Calif.) using a wide wavelength excitation/emission (591 nm/622 nm respectively) fluorescence energy transfer peptide according to the manufacturer's instructions. Control incubations with BV or metabolite only were performed to eliminate or correct for autofluorescence or quenching. A competitive inhibitor of the NS3/4A protease, AnaSpec #25346, was used as positive control.

[3] = test system: Huh7.5FL replicon (full length Con1); experiment: HCV replication in full-length (FL) replicon cells, real-time RT-PCR (ΔCT); type: cell-based; details: for concentration showing significant antiviral activity / required to suppress HCV replication: FL replicon, 48 hr; for Relative [HCV] [ΔCT]: overnight, Huh7.5FL, control vehicle = 1.0
Text: as §1, §2

[4] = test system: NS5A and core protein in NS and FL replicons; experiment: Western blot / immunoprecipitation of HCV proteins in replicons; type: cell-based; details: for NS5A protein level (WB): both replicon lines; for NS5A protein level (WB) / core protein level (WB): 24 hr, BV 20 μM, BR 200 μM, FeCl2 100 mM as printed
Experimental: Western blot analysis. Western blots (WB) were performed as previously described using enhanced chemiluminescence for signal detection (ECLTM, Amersham) (Abdalla et al., 2005). Signal intensities were quantified using Image J software (NIH).
Immunoprecipitation of NS5A. Log-phase replicons were treated with various concentrations of BV for 48 hr, washed, lysed in cell lysis buffer (Cell Signaling Technology, Beverly, Mass.) and clarified by cold centrifugation (14,000×g for 10 min). An aliquot of supernatant containing 100 μg protein was incubated with 1 μg of HCV NS5A monoclonal antibody (Meridian Life Science, Saco, Me.) and 20 μl of rProtein G Agarose (Invitrogen, CA) overnight at 4° C. The agarose was collected by 3000×g spin, washed three times with ice-cold PBS, then dissolved in 40 μL 2× Laemmli sample buffer (Bio-Rad, CA) and assayed by WB.

[5] = test system: J6/JFH infectious HCV in Huh7.5 cells; experiment: J6/JFH HCV infection of Huh7.5 cells (immunostaining, HCV RNA); type: cell-based; details: BV 20-200 μM, 72 hr; HCV polyvalent sera immunoreactivity and HCV RNA
Text: as §1, with “Cells were incubated with BV, BR, or FeCl2 for 24-48 h in DMEM containing 5% FBS.” left out
Quantitative Real-time RT-PCR. Total RNA was extracted from cells using Trizol reagent (Invitrogen, Carlsbad, Calif.), treated with Turbo RNase free DNase (Ambion, TX), and processed as described (Zhu et al., 2008). […] Quantitation was performed using the comparative cycle threshold (ΔCT) method as described previously (Abdalla et al., 2004).
Immunocytochemical staining. […] Antibody binding was evaluated following labeling with anti-human secondary antibody-alkaline phosphatase conjugate and results recorded by photomicroscopy.

HIV-1 protease = HIV-1 protease (Human immunodeficiency virus type 1 group M subtype B, UniProt P04585); details: McPhee et al. 1996; cited from earlier work
[6] = test system: HCV replication in FL and NS replicons; experiment: BV with α-interferon, HCV replication in replicons; type: cell-based; details: 50 or 100 μM BV overnight with α-interferon
Experimental: FL (FIG. 7A) or NS (FIG. 7B) replicons were treated with indicated amounts of α-interferon alone or in the presence of 50 or 100 μM BV overnight. HCV replication was determined by real-time RT-PCR using the comparative cycle threshold (ΔCT) method. (*) p<0.01 vs. control; (#) p<0.005 vs. control.
as §2

vascular injury = details: rats, 50 mg/kg; cited from earlier work
[7] = test system: HCV RNA in NS and FL replicons after BVR siRNA; type: cell-based; details: BV 20 μM or BR 100 μM overnight, both replicon lines, vs scrambled RNA
Experimental: as §2
Biliverdin reductase (BVR) knockdown. Biliverdin reductase (BVR) siRNA and control (scrambled) siRNA were purchased from Santa Cruz Biotechnology (sc-44650 and sc-37007). BVR knockdown was performed as described previously (Ryter et al., 2007). Efficiency of the knockdown was monitored by semiquantitative densitometry of BVR WB.

[8] = in vivo; cited from earlier work
LPS induced septic shock = details: rats, 35 mg/kg; cited from earlier work
[9] = target: T2, endogenous NS3/4A protease from replicons (Hepatitis C virus genotype 1b, UniProt Q9WMX2); experiment: Endogenous NS3/4A protease assay with replicon lysates (FRET); type: biochemical, HCV; details: protease freshly prepared from replicons
T2 construct: For assays employing endogenous NS3/4A protease; expressed in transfected cells; host or cells: HCV replicon cells (Huh5-15 sub-genomic or Huh7.5FL Con1), Triton X-100 lysate
T2 sequence (Q9WMX2 1658-1711): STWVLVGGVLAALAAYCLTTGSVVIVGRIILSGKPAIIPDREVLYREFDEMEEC
T2 sequence (Q9WMX2 1027-1657): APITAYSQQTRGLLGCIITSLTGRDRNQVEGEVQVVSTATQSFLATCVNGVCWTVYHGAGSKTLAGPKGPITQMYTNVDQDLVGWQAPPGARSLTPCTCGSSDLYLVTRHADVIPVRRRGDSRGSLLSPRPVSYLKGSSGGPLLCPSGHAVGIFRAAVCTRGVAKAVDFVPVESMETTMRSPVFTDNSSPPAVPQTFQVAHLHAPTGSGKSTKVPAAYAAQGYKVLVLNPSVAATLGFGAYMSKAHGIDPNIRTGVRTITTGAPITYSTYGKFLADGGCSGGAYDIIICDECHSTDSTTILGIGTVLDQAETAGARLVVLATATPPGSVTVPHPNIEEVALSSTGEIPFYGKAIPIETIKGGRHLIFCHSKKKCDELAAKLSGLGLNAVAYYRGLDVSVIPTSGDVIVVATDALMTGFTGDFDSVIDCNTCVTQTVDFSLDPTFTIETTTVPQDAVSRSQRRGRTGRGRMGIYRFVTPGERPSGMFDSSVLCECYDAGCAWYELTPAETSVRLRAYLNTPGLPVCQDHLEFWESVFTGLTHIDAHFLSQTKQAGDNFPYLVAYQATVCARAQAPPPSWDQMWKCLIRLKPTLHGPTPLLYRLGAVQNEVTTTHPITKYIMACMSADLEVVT
Experimental: For assays employing endogenous NS3/4A protease, the high-throughput FRET assay was used with modifications (Yu et al., 20009). Replicon cells at 90% confluence were lysed in ice-cold 1.25% Triton X-100 lysis buffer (Yu et al., 20009). Serial dilutions of lysates were added in triplicate to black 96-well plates, together with designated concentrations of tetrapyrrole. The HiLyte Flur™ TR/QXL™ 610 substrate solution (AnaSpec) was prepared according to the manufacturer's instructions. The plate and substrate were incubated at 37° C. for 15 min, and then 50 μl substrate solution was added to each well. The plates were incubated at room temperature for 30 min, avoiding direct light. The fluorescence intensity was then measured as above for recombinant enzyme assays using FLUOstar Optima (BMG Lab Tech, Cary, N.C.). To ensure specificity for the NS3/4A protease, lysates of parental Huh7 and Huh7.5 cells were run in every assay and the results subtracted as background fluorescence.

[10] = test system: replicon or parental cell lines (Huh7.5); experiment: Cytotoxicity, MTT assay; type: cell-based, human; details: 20-200 μM BV
Experimental: Cytotoxicity assay. Cytotoxicity was assessed using the MTT assay as detailed previously (Wen et al., 2008). Cells (1×10^4 per well) were seeded in 96-well culture plates and allowed to attach overnight. […]

[11] = unconjugated form; cited from earlier work
[12] = recombinant protease, 591 nm/622 nm FRET peptide, regression analysis; read-out: IC50, inhibition of HCV NS3/4A protease

Bilirubin mixed isomers [Bilirubin (mixed isomers)]
concentration showing significant antiviral activity / required to suppress HCV replication [1]: 200 µM | IC50 [2, 12]: > 300 µM | concentration showing significant antiviral activity / required to suppress HCV replication [3]: 200 µM

[Cl][Fe][Cl] [FeCl2, reference compound]
NS5A protein level (WB) [4]: decreased | core protein level (WB) ([4]; full-length replicons): decreased | HCV RNA ([3]; FeCl2 100 mM as printed, replicon line not specified, not shown): diminishing HCV RNA

C=CC1=C(C)/C(=C/C2=NC(=C\c3[nH]c(/C=C4\NC(=O)C(C)=C4C=C)c(C)c3CCC(=O)O)/C(CCC(=O)O)=C2C)NC1=O [Biliverdin, biliverdin-IX-α hydrochloride]
concentration showing significant antiviral activity / required to suppress HCV replication [1]: 20 µM | Huh7.5 cell infection with J6/JFH [5]: markedly decreased | difference in IC50 of BV and BR for the NS3/4a protease ([2]; BV versus BR): at least 10 fold | mode of inhibition of NS3/4A protease ([2]; Lineweaver-Burk and secondary plots): both noncompetitive and competitive inhibitor activity | effect of BV together with #25346 on protease activity ([2]; both BV and #25346 present): additive effect | IC50 ([2]; read-out: IC50, inhibition of HCV NS3/4A protease; recombinant protease, 591 nm/622 nm FRET peptide, regression analysis; listed as BV, hydrochloride): 9.3 µM and 9 µM | Ki ([2]; read-out: Ki (competitive), secondary plot Km/V vs [BV]; recombinant NS3/4A, Lineweaver-Burk): 0.6 µM | Ki ([2]; read-out: Ki′ (noncompetitive), secondary plot 1/Vap vs [BV]; recombinant NS3/4A, Lineweaver-Burk): 1.1 µM | Ki (HIV-1 protease): 1 µM | effect of BV on α-interferon antiviral activity [6]: clear additive effect | vascular injury (vascular injury): prevented vascular injury | NS5A protein level (WB) [4]: decreased NS5A | core protein level (WB) ([4]; full-length replicons): reduced | NS5A by WB or immunoprecipitation, concentration series ([4]; full-length replicons, various concentrations of BV): dose-dependently decreased NS5A | effect of BVR knockdown on antiviral activity (HCV RNA) [7]: significantly enhanced | oral bioavailability [8]: relatively poor oral bioavailability | LPS induced septic shock (LPS induced septic shock): protected rats against LPS induced septic shock | inhibition of endogenous protease compared with recombinant enzyme [9]: slightly higher concentrations | concentration showing significant antiviral activity / required to suppress HCV replication [3]: 20 µM | toxicity (MTT) with FBS ([10]; inclusion of 3-5% FBS, data not shown): toxicity was eliminated | toxicity (MTT) ([10]; serum-free culture medium, 24-48 hr): 15%

C=CC1=C(C)/C(=C/C2=NC(=C\c3[nH]c(/C=C4/NC(=O)C(C)=C4C=C)c(C)c3CCC(=O)OC)/C(CCC(=O)OC)=C2C)NC1=O [Biliverdin dimethylester, biliverdin dimethyl ester]
IC50 [2, 12]: > 300 µM

C=CC1=C(C)/C(=C/c2[nH]c(Cc3[nH]c(/C=C4\NC(=O)C(C)=C4C=C)c(C)c3CCC(=O)O)c(CCC(=O)O)c2C)NC1=O [Bilirubin IXα, bilirubin-IX-α]
concentration showing significant antiviral activity / required to suppress HCV replication [1]: 200 µM | IC50 [2, 12]: > 300 µM | concentration showing significant antiviral activity / required to suppress HCV replication [3]: 200 µM

CCC1=C(C)/C(=C/c2[nH]c(Cc3[nH]c(/C=C4\NC(=O)C(C)=C4CC)c(C)c3CCC(=O)O)c(CCC(=O)O)c2C)NC1=O [Mesobilirubin, mesobilirubin]
IC50 [2, 12]: > 300 µM

C=CC1=C(C)/C(=C/c2[nH]c(Cc3[nH]c(/C=C4\NC(=O)C(C)=C4C=C)c(C)c3CCC(=O)O)c(CCC(=O)O)c2C)NC1=O [BR, Bilirubin]
IC50 ([2]; read-out: IC50, inhibition of HCV NS3/4A protease; recombinant protease, 591 nm/622 nm FRET peptide, regression analysis): > 300 µM | Ki (HIV-1 protease): 0.8 µM | solubility in water [11]: not soluble in water | effect of BVR knockdown on antiviral activity (HCV RNA) [7]: no significant effect | oral bioavailability [8]: relatively poor oral bioavailability

hemin [Heme]
Relative [HCV] [ΔCT] ([1]; Heme 5 uM, mean of four): 0.27 | Relative [HCV] [ΔCT] ([1]; Heme 10 uM): 0.09 | Relative [HCV] [ΔCT] ([1]; Heme 20 uM): 0.03 | lowest level with apparent antiviral effect ([1]; hemin, replicons): 5 | Relative [HCV] [ΔCT] ([3]; Heme 5 uM): 0.22 | Relative [HCV] [ΔCT] ([3]; Heme 10 uM): 0.08 | Relative [HCV] [ΔCT] ([3]; Heme 20 uM): 0.04 | lowest level with apparent antiviral effect ([3]; hemin, replicons): 5
